The record followed here is patent US20120093947A1, “METHOD OF TREATING REACTIVE AIRWAY DISEASE” (UNITED STATES DEPARTMENT OF VETERANS AFFAIRS, priority 2009, published 2012).

Where two headings read alike, the source gives them in different places.

Assay [1] concerns the target T1, MPO (Homo sapiens, UniProt P05164). Nature of the assay: EPR of MNP adducts with radicals from β2-agonists generated by MPO/H2O2. The format is biochemical. On the set-up: Myeloperoxidase (MPO) from human leucocytes (lyophilized powder); purchased Axxora, LLC (San Diego, Calif.); host or cells: human leucocytes (natural source). As for the experimental part: Formation of free radicals from β2-agonists is studied in samples prepared in 100 mM phosphate buffer (pH 7.0 and 8.0)/DTPA (0.2 mM) (total volume 250 μL) containing MNP, MPO (or LPO) and the agonists. The reaction is initiated by the addition of H2O2 as the last component. In experiments in which H2O2 was generated using glucose (1 mM) and glucose oxidase (3.9 μg/mL), glucose oxidase is added as a last component. The sample is transferred to a flat aqueous EPR cell and recording is started 1 minute after initiation of the reaction. Typically, spectra of MNP adducts are recorded using microwave power 20 mW, modulation amplitude 0.1 mT, receiver gain 2×10^5, conversion time 40.96 ms, time constant 81.92 ms, and scan rate of 10 mT/41.92 s. EPR spectra constitute an average of 5 scans and represent results of typical experiments. Unless stated otherwise, direct EPR measurements (spin traps omitted) of free radicals derived from β2-agonists are performed using conditions similar to those for the detection of MNP adducts. EPR spectra are simulated using WINSIM software developed at NIEHS/NIH (RTP, NC).
The effect of methimazole and dapsone on the formation of free radicals from drugs is studied in phosphate buffers (pH 7.0 and 8.0) containing DTPA (0.2 mM) and MNP (10 mM in dimers). Oxidation is carried out by MPO (0.43 units/mL)/H2O2 (37 μM) and LPO (0.39 μM)/glucose (1 mM)/glucose oxidase (0.8 μg/mL). […]
Table 3, below, summarizes the effects of dapsone and methimazole on EPR spectra of MNP adducts with radicals from fenoterol and terbutaline generated by MPO/H2O2 and LPO/H2O2 systems at a pH of 8.0. Concentrations of MNP spin adducts were calculated as second integrals of the low-field component of the respective spectra and are expressed as % of control samples (no additives). Results equal the means±SE of at least two measurements.
. […] This is consistent with the known inhibitory action of both methimazole and dapsone on LPO activity and only methimazole on MPO activity. Thomas et al. (1994) J. Dent. Res. 73(2):544-55. Results obtained at pH 7.0 qualitatively agree with those at pH 8.0.

Assay [2] addresses T1, MPO. The assay can be described thus: Nitration of salbutamol by MPO/H2O2/NO2−, A410. Format: biochemical. The arrangement: Myeloperoxidase (MPO) from human leucocytes (lyophilized powder); purchased Axxora, LLC (San Diego, Calif.); host or cells: human leucocytes (natural source). The note with it: 50 μM salbutamol; for Nitrophenols, (%) MPO: 5.0 mM NaNO2, 5 mM H2O2, 0.2 U/mL MPO, pH 7.0, 30 min, ΔA410 versus control. As for the experimental part:
Spectrophotometric Measurements. Spectra are measured using an Agilent diode array spectrophotometer model 8453 (Agilent Technologies, Inc., Santa Clara, Calif.). Nitration of salbutamol is studied by measuring absorption spectra at designated time points following the start of the reaction. Samples are prepared in 100 mM phosphate buffers (pH 7.0). All buffers contained DTPA (100 μM) or are pretreated with Chelex-100 before use, and measurements are performed at ambient temperature of 20° C. Typically, the reaction is started by the addition of a small aliquot of H2O2 or the desired peroxidase. Time course measurements are carried out following changes in absorbance at 410 nm in 30 second intervals versus absorbance at 800 nm, where none of the compounds absorb.
We also examine the effect of methimazole on nitration catalyzed by MPO and EPO. 50 μM of salbutamol is reacted with 0.2 U/mL MPO, 5 mM NaNO2, and 2.1 mM H2O2 at pH buffer 7.0 in the presence of 0, 25, 50, and 100 μM methimazole (shown in FIG. 9, section B, traces a-d, respectively). In contrast to inhibition of nitration by LPO system, which was irreversible, inhibitory action of methimazole on MPO/H2O2/NO2^− is transitory.
The extent of nitration is expressed as a change in ΔA410 versus control (dapsone omitted) taken as 100% after 10, 30, and 60 minute reactions for LPO, MPO, and EPO nitrating systems, respectively. Results equal the means±SE of at least two measurements. In the LPO system, 100 μM of salbutamol, 3.4 mM of NaNO2, 4 mM of H2O2, and 65 nM of LPO is used. In the MPO system, 50 μM of salbutamol, 5.0 mM of NaNO2, 5 mM of H2O2, and 0.2 U/mL of MPO is used. In the EPO system, 50 μM of salbutamol, 5 mM of NaNO2, 2 mM of H2O2, and 0.075 U/mL of EPO is used. All reactions were carried out in pH 7.0 phosphate buffer containing DMSO (5% v/v). The term “nitrophenols” includes nitrosalbutamol (N-Sal) and salbutamol-derived nitrophenol (N—ArOH).

T1 sequence (P05164 279-745 limits assumed): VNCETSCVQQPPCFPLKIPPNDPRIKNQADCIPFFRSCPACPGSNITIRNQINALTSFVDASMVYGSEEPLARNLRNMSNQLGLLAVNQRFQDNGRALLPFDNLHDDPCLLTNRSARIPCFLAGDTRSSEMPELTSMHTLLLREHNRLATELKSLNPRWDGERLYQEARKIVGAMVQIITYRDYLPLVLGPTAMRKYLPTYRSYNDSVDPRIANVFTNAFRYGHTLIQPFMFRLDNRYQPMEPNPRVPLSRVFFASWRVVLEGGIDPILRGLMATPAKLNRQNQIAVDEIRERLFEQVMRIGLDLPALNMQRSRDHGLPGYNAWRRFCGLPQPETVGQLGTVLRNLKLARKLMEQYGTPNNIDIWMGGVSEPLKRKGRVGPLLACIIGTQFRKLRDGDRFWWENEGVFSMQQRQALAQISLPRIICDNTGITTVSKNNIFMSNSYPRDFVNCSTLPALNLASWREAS
T1 sequence (P05164 165-273 limits assumed): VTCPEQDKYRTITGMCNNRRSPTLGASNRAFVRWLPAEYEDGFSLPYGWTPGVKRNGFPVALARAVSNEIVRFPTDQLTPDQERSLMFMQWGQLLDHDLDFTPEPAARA

Take `Nc1ccc(S(=O)(=O)c2ccc(N)cc2)cc1` [Dapsone, diamino-diphenyl sulfone]: at MPO [1] (inhibitor 1 mM, MPO/H2O2), the “Effect on MPO activity (formation of radicals from fenoterol and terbutaline, MPO system)” value is reported as “only a minimal effect”. The “Nitrophenols, (%) MPO” value on MPO [2] (dapsone 100 μM) is 66.3 ± 0.6%; at MPO [2] (dapsone 250 μM), 56.0 ± 1.3%; on MPO [2] (dapsone 500 μM) it was 44.2 ± 3.0%.
Take `Cn1cc[nH]c1=S` [Methimazole, 1-methyl-3H-imidazole-2-thione]: at MPO [1] (fenoterol 0.47 mM, inhibitor 0.86 mM, reagent H2O2 37 μM, pH 8.0), the “Concentration of MNP spin adducts, Fenoterol, +MPO + H2O2, % of control” value was “inhibitory”. Besides, the remaining activity at 860 µM on MPO [1] (fenoterol 0.47 mM, inhibitor 0.86 mM, reagent H2O2 37 μM, pH 8.0, read-out: Concentration of MNP spin adducts, Fenoterol, +MPO + H2O2, % of control) worked out at 22.4 ± 0.6%; at MPO [1] (terbutaline 0.47 mM, inhibitor 0.86 mM, reagent H2O2 37 μM, pH 8.0, read-out: Concentration of MNP spin adducts, Terbutaline, +MPO + H2O2, % of control), 33.5 ± 3.5%. Further, the “Concentration of MNP spin adducts, Terbutaline, +MPO + H2O2, % of control” value at MPO [1] (terbutaline 0.47 mM, inhibitor 0.86 mM, reagent H2O2 37 μM, pH 8.0) is reported as “inhibitory”. In addition, at MPO [2] (methimazole 25, 50, 100 μM, 0.2 U/mL MPO, 5 mM NaNO2, 2.1 mM H2O2, pH 7.0), the “Inhibitory action on nitration of salbutamol by MPO/H2O2/NO2−” value was “transitory”.
